Some test systems named below: T-47D breast; HL-60(TB) leukemia; HCC-2998 colon; HT29 colon; K-562 leukemia; SF-539 CNS; LOX IMVI melanoma; SF-268 CNS; MALME-3M melanoma; NCI-H460 lung.
What all share (test): DTP human tumour cell line panel, 48 h

Where “and” joins values, the source holds several entries; their conditions need not be identical. Identical values can stand only once.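 Exposure lasted 48 hours, with cells grown in 96-well plates and compounds tested at five concentrations. Here, GI50 denotes the concentration required for 50% inhibition of growth. At the TGI there is no net growth.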

The TGI is the concentration giving total growth inhibition. Turning to `N#CC1(C#N)C2C=CC(C3CCC=C32)C1(C#N)C#N` (stereo unspecified), the TGI in the assay with T-47D breast was more than 8.87 µM; in the assay with HL-60(TB) leukemia, 3.81 µM; in the assay on HCC-2998 colon, more than 10 µM; with HT29 colon it was more than 10 µM; in the assay with K-562 leukemia, more than 10 µM; in the assay with SF-539 CNS it was more than 10 µM. Further, the TGI in the assay on LOX IMVI melanoma was more than 10 µM; with SF-268 CNS, more than 10 µM; in the assay on MALME-3M melanoma it was 5.5 µM; in the assay on NCI-H460 lung, more than 10 µM.

As usually defined, the GI50 is the concentration giving 50% growth inhibition. Regarding `COC(=O)Nc1nc2ccc(Sc3ccc(NC(=O)Nc4cc(C(F)(F)F)ccc4F)cc3)cc2[nH]1`, the GI50 in the assay with T-47D breast is 4.43 µM; with HL-60(TB) leukemia, 1.46 µM; in the assay on HCC-2998 colon it was 3.96 µM; with HT29 colon, 1.4 µM; with K-562 leukemia, 0.739 µM; with SF-539 CNS, 3.23 µM. The GI50 is 1.5 µM in the assay on LOX IMVI melanoma, 3.89 µM in the assay on SF-268 CNS, 2.99 µM in the assay with MALME-3M melanoma and 2.73 µM in the assay with NCI-H460 lung. Moreover, the TGI amounted to 11.2 µM in the assay with T-47D breast; 12.3 µM with HL-60(TB) leukemia; 13.1 µM in the assay on HCC-2998 colon; 4.54 µM with HT29 colon; 5.89 µM with K-562 leukemia; 7.98 µM in the assay with SF-539 CNS. Also, the TGI in the assay with LOX IMVI melanoma was 6.16 µM; in the assay on SF-268 CNS, 9.6 µM; in the assay on MALME-3M melanoma it was 23.6 µM; with NCI-H460 lung it was 6.79 µM.

Turning to `O=c1[nH]c2cc(O)ccc2n2cc3c(F)cccc3c12`, the GI50 in the assay with T-47D breast is more than 100 µM; with HL-60(TB) leukemia, 6.55 µM; with HCC-2998 colon, more than 24.3 µM; with HT29 colon, 5.33 µM; in the assay on K-562 leukemia it was 0.547 µM; in the assay with SF-539 CNS it was 1.3 µM. Also, the GI50 was 0.748 µM in the assay on LOX IMVI melanoma, 2.57 µM in the assay on SF-268 CNS, 3.96 µM in the assay on MALME-3M melanoma and 0.451 µM in the assay with NCI-H460 lung. Besides, the TGI in the assay with T-47D breast, with HL-60(TB) leukemia, in the assay with HCC-2998 colon, in the assay on HT29 colon, in the assay on K-562 leukemia and in the assay with SF-539 CNS was more than 100 µM throughout. The concentration for total growth inhibition (TGI) in the assay on LOX IMVI melanoma, in the assay with SF-268 CNS, in the assay on MALME-3M melanoma and in the assay on NCI-H460 lung was more than 100 µM throughout.

Regarding `O=C(CN=Cc1cccs1)CSC(c1ccccc1)c1ccccc1`, the GI50 with T-47D breast is 20.1 µM; with HL-60(TB) leukemia, 18.9 µM; in the assay on HCC-2998 colon, 29.3 µM; with HT29 colon it was 27.7 µM; in the assay with K-562 leukemia it was 15.8 µM; in the assay on SF-539 CNS, 26.6 µM. Besides, the GI50 in the assay on LOX IMVI melanoma was 25.8 µM; in the assay with SF-268 CNS, 50.1 µM; with MALME-3M melanoma, 19.6 µM; in the assay on NCI-H460 lung it was 24.8 µM. Also, the TGI stood at 84.3 µM in the assay on T-47D breast; 41.9 µM with HL-60(TB) leukemia; 93.3 µM in the assay with HCC-2998 colon; 99.2 µM with HT29 colon; 54.1 µM in the assay on K-562 leukemia; 71.1 µM in the assay on SF-539 CNS. Also, the TGI in the assay on LOX IMVI melanoma was 82.2 µM; in the assay on SF-268 CNS, more than 100 µM; in the assay with MALME-3M melanoma, 49.4 µM; in the assay with NCI-H460 lung it was 70.1 µM.

In the case of `CCN(CC)CCOc1ccc(C2=C(c3ccccc3)CCc3cc(OC)ccc32)cc1`, the GI50 is 0.811 µM in the assay on T-47D breast; 8.99 µM in the assay with HL-60(TB) leukemia; 1.39 µM with HCC-2998 colon; 0.445 µM in the assay with HT29 colon; 2.8 µM in the assay with K-562 leukemia; 1.52 µM in the assay on SF-539 CNS. Besides, the GI50 is 1.75 µM in the assay with LOX IMVI melanoma, 5.97 µM in the assay with SF-268 CNS, 1.69 µM in the assay with MALME-3M melanoma and 1.84 µM in the assay with NCI-H460 lung. The TGI with T-47D breast was found to be 6.86 µM; in the assay with HL-60(TB) leukemia, 26 µM; with HCC-2998 colon, 2.81 µM; in the assay on HT29 colon, 1.87 µM; in the assay on K-562 leukemia, 15.5 µM; in the assay on SF-539 CNS, 2.89 µM. The TGI was 3.64 µM in the assay on LOX IMVI melanoma, 18 µM in the assay on SF-268 CNS, 3.41 µM in the assay on MALME-3M melanoma and 3.52 µM with NCI-H460 lung.

As to `CCOP(=O)(OCC)C(F)(F)CC1CCCCC1`, the TGI in the assay with T-47D breast, with HL-60(TB) leukemia, in the assay on HCC-2998 colon, with HT29 colon, in the assay on K-562 leukemia and with SF-539 CNS was more than 10 µM in each case. Moreover, the total growth inhibition concentration (TGI) in the assay on LOX IMVI melanoma, in the assay with SF-268 CNS, in the assay on MALME-3M melanoma and in the assay on NCI-H460 lung was more than 10 µM each time.

Turning to `CCCOc1c2cc(COC3OC(CO)C(O)C(O)C3O)cc1Cc1cc(COC3OC(CO)C(O)C(O)C3O)cc(c1OCCC)Cc1cc(COC3OC(CO)C(O)C(O)C3O)cc(c1OCCC)Cc1cc(COC3OC(CO)C(O)C(O)C3O)cc(c1OCCC)C2` (stereo unspecified), the GI50 in the assay on T-47D breast is 34.3 µM and 69.9 µM and 29 µM; in the assay with HL-60(TB) leukemia, 27.8 µM and 78 µM and 7.86 µM; in the assay on HT29 colon, > 100 µM and 89.8 µM and 32.6 µM; in the assay on K-562 leukemia, 36.7 µM and 62.2 µM and 15.8 µM; in the assay on SF-539 CNS, > 100 µM and 25 µM; in the assay with LOX IMVI melanoma, > 100 µM and 58.6 µM and 17.6 µM. For the same compound, the GI50 with SF-268 CNS was > 100 µM and 80.4 µM and 17.5 µM; in the assay on NCI-H460 lung, 56.9 µM and > 100 µM and 30.3 µM. Further, the TGI in the assay with T-47D breast is more than 100 µM; with HL-60(TB) leukemia, 77.7 µM and > 100 µM and 21.6 µM; in the assay on HCC-2998 colon it was more than 100 µM; with HT29 colon, more than 100 µM; in the assay with K-562 leukemia, > 100 µM and 32.5 µM; in the assay with SF-539 CNS it was > 100 µM and 79.8 µM. For the same compound, the TGI in the assay with LOX IMVI melanoma was > 100 µM and 31.4 µM; with SF-268 CNS, > 100 µM and 33.3 µM; in the assay with MALME-3M melanoma it was more than 100 µM; in the assay with NCI-H460 lung, > 100 µM and 92.3 µM.

As to `COc1ncnc2c(-c3ccco3)cn(COCc3ccccc3)c12`, the GI50 is 2.98 µM in the assay on T-47D breast; more than 50 µM in the assay on HL-60(TB) leukemia; more than 50 µM in the assay with HCC-2998 colon; more than 50 µM with HT29 colon; more than 50 µM in the assay on K-562 leukemia; more than 50 µM in the assay on SF-539 CNS. Further, the GI50 with LOX IMVI melanoma, with SF-268 CNS and in the assay on MALME-3M melanoma was more than 50 µM each time. Moreover, the TGI with T-47D breast, in the assay on HL-60(TB) leukemia, in the assay on HCC-2998 colon, in the assay on HT29 colon, with K-562 leukemia and in the assay with SF-539 CNS was more than 50 µM throughout. Besides, the total growth inhibition concentration (TGI) in the assay on LOX IMVI melanoma, in the assay with SF-268 CNS and with MALME-3M melanoma was more than 50 µM throughout.

Source of the values: PubChem BioAssay (NCI).
